# According to US20240277682A1, “PHARMACEUTICAL HYDRONIDONE FORMULATIONS FOR DISEASES” (Gyre Therapeutics, Inc., priority 2021, published 2024):
# Read-outs that look alike come from different tables or passages of the source.
# Tests used:
# [1] = In vitro Phase 2 metabolism in human liver microsomes; assay type: in vitro ADME; conditions: 30 minutes incubation
# human CYP 1A2 = target: T1, human CYP 1A2 (Homo sapiens, UniProt P05177); test: biochemical
# T1 sequence (P05177 1-516): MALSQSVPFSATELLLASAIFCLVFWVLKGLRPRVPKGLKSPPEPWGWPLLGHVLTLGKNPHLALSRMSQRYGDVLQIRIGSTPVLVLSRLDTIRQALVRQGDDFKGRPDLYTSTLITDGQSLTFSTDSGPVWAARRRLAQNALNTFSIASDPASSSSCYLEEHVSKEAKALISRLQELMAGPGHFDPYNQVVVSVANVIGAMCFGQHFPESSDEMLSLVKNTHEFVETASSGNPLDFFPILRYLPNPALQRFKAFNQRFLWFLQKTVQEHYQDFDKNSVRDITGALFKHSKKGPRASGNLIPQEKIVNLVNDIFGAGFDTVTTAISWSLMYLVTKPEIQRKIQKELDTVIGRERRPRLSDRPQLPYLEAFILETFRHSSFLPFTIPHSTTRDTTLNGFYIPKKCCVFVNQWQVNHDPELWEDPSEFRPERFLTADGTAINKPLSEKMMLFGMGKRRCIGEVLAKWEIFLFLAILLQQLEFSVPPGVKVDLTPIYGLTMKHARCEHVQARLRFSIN
# Experimental: (§1) In vitro study investigated whether Hydronidone is inhibitor for human cytochrome P450 (CYP450). The effects of different Hydronidone concentrations were determined by the fluorescence intensity of metabolic substrates of CYP1A2, 2C9, 2C19, 2 D6 and 3A4, produced under the effect of the relevant enzyme. The respective IC50 value were calculated in the event of observed inhibition with hydronidone.
# human CYP 2 D6 = human CYP 2 D6 (Homo sapiens, UniProt P10635); test: CYP450 inhibition, fluorescence of metabolic substrates
# Experimental: as §1
# human CYP 2C19 = human CYP 2C19 (Homo sapiens, UniProt P33261); test: as above
# Experimental: as §1
# human CYP 2C9 = human CYP 2C9 (Homo sapiens, UniProt P11712); test: as above
# Experimental: as §1
# human CYP 3A4 = human CYP 3A4 (Homo sapiens, UniProt P08684); test: as above
# Experimental: as §1
# [2] = PK study of single ascending oral doses in healthy volunteers (Example 7); assay type: in vivo, human; conditions: for CL renal / AUC / AUC(0-t) / Cmax / Tmax: male, human; for CL renal: plasma and urine; for CL renal / AUC / AUC(0-t) / Cmax / Tmax / Cl_F_pred / HL_Lambda_z / Lambda_z / Vz_F_pred: fasted; for CL renal / AUC / AUC(0-t) / Cmax / Cl_F_pred / HL_Lambda_z / Lambda_z / Vz_F_pred / Amount_Recovered / Percent_Recovered (urinary percentage of Hydronidone): n = 12, Mean(SD); for AUC / AUC(0-t) / Cmax / Tmax: plasma; for AUC: healthy Chinese subjects, read-out: AUCINE_pred; for Tmax: n = 12, Median (Min-Max); for Amount_Recovered / Percent_Recovered (urinary percentage of Hydronidone): urine
# Experimental: This was randomized, open-label, 4-period, crossover PK study of single ascending oral doses of Hydronidone in healthy volunteers.
# Ascending single oral doses of 200 mg, 400 mg, 600 mg and 800 mg of Hydronidone were given to 12 eligible, healthy male Chinese subjects, 26-38 years of age, satisfying all inclusion and exclusion criteria, and randomly divided into four dose groups, 3 subjects per group, under fasted conditions. According to the Williams Design, the subjects in each group were treated with Hydronidone at four different doses in four periods. The PK blood samples were collected at: 0 (pre-dose), 10 min, 20 min, 30 min, 40 min, 1 hr, 1.5 hr, 2 hr, 3 hr, 4 hr, 5 hr, 6 hr, 8 hr, 10 hr, 12 hr, 16 hr, and 24 hr, and 48 hr post-dose. The subjects also provided PK urine samples at 0 (pre-dose), 5 hr, 12 hr, and 24 hr post-dose. There was additional 24 hr washout period after the end of collection of PK samples, a total of 48 hrs between the first and the next dose level administration. Blood and urine samples were analysed for determination of plasma and urine concentrations of Hydronidone and its metabolites (M3).
# [3] = Parallel group PK study of multiple ascending oral doses (Example 9); assay type: in vivo, human
# Experimental: This was randomized, open-label, parallel group PK study of multiple ascending oral doses of Hydronidone in healthy Chinese subjects.
# In this study, ascending oral doses of Hydronidone of 200 mg, 400 mg, and 600 mg TID, were administered to 27 healthy subjects (15 males and 12 females) divided into 3 groups (9 subjects/group), for four (4) consecutive days. This was an inpatient study. Hydronidone was administered under fasted conditions. Blood and urine samples were collected for PK assessments. The PK assessments were performed upon single (after the first dose) and multiple dosing. Standard safety evaluations were also performed including physical examination, ECG, hematology, serum biochemistry and urinalysis.
compound,measurement,setting,value
"Cc1ccc(=O)n(-c2ccc(O)cc2)c1 [Hydronidone, N-(4-hydroxyphenyl)-5-Methyl-2-pyridone]",generation of the M4 metabolite,[1],detected
same,IC50,human CYP 1A2,> 100 µM
same,IC50,human CYP 2 D6,> 100 µM
same,IC50,human CYP 2C19,> 100 µM
same,IC50,human CYP 2C9,> 100 µM
same,IC50,human CYP 3A4,> 100 µM
same,amount of intact drug excreted via urine during 48 h,"[2]; first of four values (doses 200, 400, 600, 800 mg): 200 mg",82.25 ± 40.95 mg
same,amount of intact drug excreted via urine during 48 h,[2]; fourth of four values: 800 mg,234.72 ± 210.50 mg
same,CL renal,[2]; single oral dose 200 mg,14.7 mL/min
same,CL renal,[2]; single oral dose 400 mg,11.1 mL/min
same,CL renal,[2]; single oral dose 600 mg,9.83 mL/min
same,CL renal,[2]; single oral dose 800 mg,8.7 mL/min
same,AUC,[2]; single oral dose 200 mg,1380 ng·h/mL
same,AUC(0-t),[2]; single oral dose 200 mg,1360 ng·h/mL
same,Cmax,[2]; single oral dose 200 mg,715 ng/mL
same,Tmax,[2]; single oral dose 200 mg,19.8 min
same,AUC,[2]; single oral dose 400 mg,2800 ng·h/mL
same,AUC(0-t),[2]; single oral dose 400 mg,2780 ng·h/mL
same,Cmax,[2]; single oral dose 400 mg,1400 ng/mL
same,Tmax,[2]; single oral dose 400 mg,19.8 min
same,AUC,[2]; single oral dose 600 mg,5010 ng·h/mL
same,AUC(0-t),[2]; single oral dose 600 mg,4920 ng·h/mL
same,Cmax,[2]; single oral dose 600 mg,2500 ng/mL
same,Tmax,[2]; single oral dose 600 mg,40.2 min
same,AUC,[2]; single oral dose 800 mg,6310 ng·h/mL
same,AUC(0-t),[2]; single oral dose 800 mg,6290 ng·h/mL
same,Cmax,[2]; single oral dose 800 mg,2960 ng/mL
same,Tmax,[2]; single oral dose 800 mg,40.2 min
same,amount of intact drug excreted via urine during 48 h,[2]; second of four values: 400 mg,183.75 ± 142.14 mg
same,Cl_F_pred,[2]; single oral dose 200 mg,154(39.65) L/hr
same,HL_Lambda_z,[2]; single oral dose 200 mg,6.9(2.06) hr
same,Lambda_z,[2]; single oral dose 200 mg,0.1093(0.03) l/hr
same,Vz_F_pred,[2]; single oral dose 200 mg,1540(644.41) L
same,Cl_F_pred,[2]; single oral dose 400 mg,154(44.83) L/hr
same,HL_Lambda_z,[2]; single oral dose 400 mg,5.26(1.58) hr
same,Lambda_z,[2]; single oral dose 400 mg,0.1434(0.04) l/hr
same,Vz_F_pred,[2]; single oral dose 400 mg,1180(530.69) L
same,Cl_F_pred,[2]; single oral dose 600 mg,129(35.67) L/hr
same,HL_Lambda_z,[2]; single oral dose 600 mg,6.46(2.07) hr
same,Lambda_z,[2]; single oral dose 600 mg,0.1141(0.02) l/hr
same,Vz_F_pred,[2]; single oral dose 600 mg,1180(407.19) L
same,Cl_F_pred,[2]; single oral dose 800 mg,134(35.93) L/hr
same,HL_Lambda_z,[2]; single oral dose 800 mg,5.54(0.86) hr
same,Lambda_z,[2]; single oral dose 800 mg,0.1278(0.02) l/hr
same,Vz_F_pred,[2]; single oral dose 800 mg,1080(336.89) L
same,safety and tolerability,"[2]; single oral doses of 200, 400, 600, 800 mg, Chinese healthy subjects",safe and well tolerated with no adverse events nor SAEs reported
same,amount of intact drug excreted via urine during 48 h,[2]; third of four values: 600 mg,218.93 ± 182.73 mg
same,Amount_Recovered,[2]; single oral dose 200 mg,1.27(1.34) L*mg/L
same,Percent_Recovered (urinary percentage of Hydronidone),[2]; single oral dose 200 mg,0.634±0.57%
same,Percent_Recovered (urinary percentage of Hydronidone),"[2]; single oral dose 200 mg, listed as hydronidone",0.634(0.57) %
same,Amount_Recovered,[2]; single oral dose 400 mg,1.92(0.87) L*mg/L
same,Percent_Recovered (urinary percentage of Hydronidone),[2]; single oral dose 400 mg,0.479±0.22%
same,Percent_Recovered (urinary percentage of Hydronidone),"[2]; single oral dose 400 mg, listed as hydronidone",0.479(0.22) %
same,Amount_Recovered,[2]; single oral dose 600 mg,2.86(1.19) L*mg/L
same,Percent_Recovered (urinary percentage of Hydronidone),[2]; single oral dose 600 mg,0.476±0.2%
same,Percent_Recovered (urinary percentage of Hydronidone),"[2]; single oral dose 600 mg, listed as hydronidone",0.476(0.2) %
same,Amount_Recovered,[2]; single oral dose 800 mg,3.22(2.03) L*mg/L
same,Percent_Recovered (urinary percentage of Hydronidone),[2]; single oral dose 800 mg,0.403±0.25%
same,Percent_Recovered (urinary percentage of Hydronidone),"[2]; single oral dose 800 mg, listed as hydronidone",0.403(0.25) %
same,number of adverse events reported,"[3]; 200 mg TID and 400 mg TID multiple-dose groups, mild",7 adverse events
same,dose proportionality of exposure,[3]; 200-600 mg TID,increasing with the dose but without strict dose proportionality
same,deaths and SAEs,"[3]; 200-600 mg TID, 4 days",No deaths nor SAEs were reported
same,safety and tolerability,"[3]; 200-600 mg TID, 4 days",safe and well tolerated
same,exposure by sex,[3]; across dose levels,Male subjects had lower exposures as compared to female subjects
same,Tmax,"[3]; both sexes, human, plasma, oral, 200, 400, 600 mg TID, fasted, healthy Chinese subjects",~60 min
same,accumulation,"[3]; single vs multiple dosing, TID for 4 days",no obvious accumulation
same,plasma level at 36 hrs. post-dose,"[3]; upon single dosing, parent drug and major metabolites",undetectable
